Reference: ChEMBL document CHEMBL1944562, “Design, synthesis of some new (2-aminothiazol-4-yl)methylester derivatives as possible antimicrobial and antitubercular agents” (2012)
Values after ≈ are worked out from the molar mass of the structure shown.

test system: Mycobacterium tuberculosis; test: Antitubercular activity against Multidrug-resistant Mycobacterium tuberculosis after 7 days by resazurin assay; assay type: functional; conditions: 168 h

Structure (SMILES)	MIC [µg/mL]
Nc1nc(COC(=O)c2ccc([N+](=O)[O-])cc2)cs1	1.25 (≈ 4.48 µM)
Nc1nc(COC(=O)c2ccccc2[N+](=O)[O-])cs1	12.5 (≈ 44.8 µM)
N#CCCc1cccc(C(=O)OCc2csc(N)n2)c1	6.25 (≈ 21.8 µM)
Nc1nc(COC(=O)c2cc(F)cc(C(F)(F)F)c2)cs1	> 50
N#Cc1ccccc1C(=O)OCc1csc(N)n1	> 50
N#Cc1cccc(C(=O)OCc2csc(N)n2)n1	> 50
Nc1nc(COC(=O)c2c(Cl)cc(Cl)cc2Cl)cs1	> 50
NNC(=O)c1ccncc1 [ISONIAZID]	12.5 (≈ 91.1 µM)
Nc1nc(COC(=O)Cc2cccc(C(F)(F)F)c2)cs1	6.25 (≈ 19.8 µM)
Nc1nc(COC(=O)C2(c3ccc(Cl)cc3)CC2)cs1	> 50
Nc1nc(COC(=O)c2ccc3ccccc3c2)cs1	> 50
Nc1nc(COC(=O)c2c(F)cccc2Cl)cs1	6.25 (≈ 21.8 µM)
Nc1nc(COC(=O)c2cccs2)cs1	> 50
Nc1nc(COC(=O)c2c(F)cc(F)cc2F)cs1	25 (≈ 86.7 µM)
Nc1nc(COC(=O)c2ccc(Br)cc2)cs1	2.5 (≈ 7.98 µM)
Nc1nc(COC(=O)Cc2ccccc2OC(F)(F)F)cs1	> 50
Nc1nc(COC(=O)c2cccc([N+](=O)[O-])c2Cl)cs1	6.25 (≈ 19.9 µM)
CO[C@H]1/C=C/O[C@@]2(C)Oc3c(C)c(O)c4c(O)c(c(/C=N/N5CCN(C)CC5)c(O)c4c3C2=O)NC(=O)/C(C)=C\C=C\[C@H](C)[C@H](O)[C@@H](C)[C@@H](O)[C@@H](C)[C@H](OC(C)=O)[C@@H]1C [RIFAMPIN]	25 (≈ 30.4 µM)
